According to US6737383B1, “Herbicidal oxadiazolidines” (priority 1999, dated 2004):

Experiments:
morningglory = experiment: Test B pre/postemergence morningglory; format: in vivo, Ipomoea hederacea
Procedure, shortened: (§1)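 Test chemicals in a non-phytotoxic solvent mixture with surfactant were sprayed preemergence onto planted seeds and postemergence onto plants 2 to 18 cm tall (1- to 4-leaf stage). After twelve to sixteen days in a greenhouse, injury was visually rated against untreated controls from 0 (no effect) to 10 (complete control).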

smallflower flatsedge = experiment: Test B flood test smallflower flatsedge; format: in vivo, Cyperus difformis
Procedure, shortened: (§2)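 Flood test on plants grown to the 2-leaf stage; treated plants kept in greenhouse twelve to sixteen days, then visually rated against controls on a 0 (no effect) to 10 (complete control) scale.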

wild oat = experiment: Test B pre/postemergence wild oat; format: in vivo, Avena fatua
Procedure, shortened: as §1

soybean = experiment: Test B pre/postemergence soybean; format: in vivo, Glycine max
Procedure, shortened: as §1

rice = experiment: Test B flood test rice; format: in vivo, Oryza sativa
Procedure, shortened: as §2

giant foxtail = experiment: Test B pre/postemergence giant foxtail; format: in vivo, Setaria faberii
Procedure, shortened: as §1

duck salad = experiment: Test B flood test duck salad; format: in vivo, Heteranthera limosa
Procedure, shortened: as §2

corn = experiment: Test B pre/postemergence corn; format: in vivo, Zea mays
Procedure, shortened: as §1

purple nutsedge = experiment: Test B pre/postemergence purple nutsedge; format: in vivo, Cyperus rotundus
Procedure, shortened: as §1

surinam grass = experiment: Test B pre/postemergence surinam grass; format: in vivo, Brachiaria decumbens
Procedure, shortened: as §1

sugar beet = experiment: Test B pre/postemergence sugar beet; format: in vivo, Beta vulgaris
Procedure, shortened: as §1

bamyardgrass = experiment: Test B flood test barnyardgrass; format: in vivo, Echinochloa crus-galli
Procedure, shortened: as §2

crabgrass = experiment: Test B pre/postemergence crabgrass; format: in vivo, Digitaria sanguinalis
Procedure, shortened: as §1

rape = experiment: Test B pre/postemergence rape; format: in vivo, Brassica napus
Procedure, shortened: as §1

pigweed = experiment: Test B pre/postemergence pigweed; format: in vivo, Amaranthus retroflexus
Procedure, shortened: as §1

cocklebur = experiment: Test B pre/postemergence cocklebur; format: in vivo, Xanthium strumarium
Procedure, shortened: as §1

[1] = Postemergence, Rate 250 g/ha, scale 0 to 10
[2] = Postemergence, Rate 500 g/ha, scale of 0 to 10 where 0 is no effect and 10 is complete control
[3] = Postemergence, Rate 1000 g/ha, scale 0 to 10 (0 no effect, 10 complete control)
[4] = Preemergence, Rate 125 g/ha, scale of 0 to 10 where 0 is no effect and 10 is complete control
[5] = Preemergence, Rate 250 g/ha, scale 0 to 10, 0 is no effect, 10 is complete control
[6] = Preemergence, Rate 500 g/ha, scale 0 to 10, 0 is no effect, 10 is complete control
[7] = Rate 125 g/ha, Postemergence, scale 0 to 10, 0 is no effect, 10 is complete control
[8] = Rate 1000 g/ha, Preemergence, scale 0 to 10 (0 no effect, 10 complete control)
[9] = Pre-emergence, Rate 1000 g/ha, scale 0 to 10 (0 no effect, 10 complete control)
[10] = Rate 125 g/ha, under heading Pre-emergence, flood test species, visual evaluation after twelve to sixteen days
[11] = Rate 250 g/ha, Pre-emergence (flood test species), scale 0 to 10, 0 is no effect, 10 is complete control
[12] = Rate 500 g/ha, Pre-emergence, flood test species, scale 0 to 10 (0 no effect, 10 complete control)

CCOP(=O)(Cn1c(=O)on(C(=O)N(c2ccccc2)C(C)C)c1=O)OCC [Compound 447]
Morningglory plant response rating (morningglory; [1]): 4 | Morningglory plant response rating (morningglory; [2]): 7 | Morningglory plant response rating (morningglory; [3]): 10 | Plant response rating, Morningglory (morningglory; [4]): 0 | Morningglory plant response rating (morningglory; [5]): 0 | Morningglory plant response rating (morningglory; [6]): 0 | Morningglory plant response rating (morningglory; [7]): 2 | Plant response rating, Morningglory (morningglory; [8]): 2 | S. Flatsedge plant response rating (smallflower flatsedge; [9]): 0 | S. Flatsedge plant response rating (0 to 10 scale, 0 is no effect, 10 is complete control) (smallflower flatsedge; [10]): 0 | S. Flatsedge plant response rating (smallflower flatsedge; [11]): 0 | S. Flatsedge plant response rating (smallflower flatsedge; [12]): 0 | Wild oats plant response rating (wild oat; [1]): 0 | Wild oats plant response rating (wild oat; [2]): 0 | Wild oats plant response rating (wild oat; [3]): 0 | Plant response rating, Wild oats (wild oat; [4]): 0 | Wild oats plant response rating (wild oat; [5]): 2 | Wild oats plant response rating (wild oat; [6]): 7 | Wild oats plant response rating (wild oat; [7]): 0 | Plant response rating, Wild oats (wild oat; [8]): 10 | Soybean plant response rating (soybean; [1]): 2 | Soybean plant response rating (soybean; [2]): 4 | Soybean plant response rating (soybean; [3]): 6 | Plant response rating, Soybean (soybean; [4]): 0 | Soybean plant response rating (soybean; [5]): 0 | Soybean plant response rating (soybean; [6]): 0 | Soybean plant response rating (soybean; [7]): 1 | Rice plant response rating (rice; [9]): 0 | Rice plant response rating (0 to 10 scale, 0 is no effect, 10 is complete control) (rice; [10]): 0 | Rice plant response rating (rice; [11]): 0 | Rice plant response rating (rice; [12]): 0 | Giant foxtail plant response rating (giant foxtail; [1]): 0 | Giant foxtail plant response rating (giant foxtail; [2]): 0 | Giant foxtail plant response rating (giant foxtail; [3]): 0 | Plant response rating, Giant foxtail (giant foxtail; [4]): 3 | Giant foxtail plant response rating (giant foxtail; [5]): 7 | Giant foxtail plant response rating (giant foxtail; [6]): 8 | Giant foxtail plant response rating (giant foxtail; [7]): 0 | Plant response rating, Giant foxtail (giant foxtail; [8]): 10 | Ducksalad plant response rating (duck salad; [9]): 0 | Ducksalad plant response rating (0 to 10 scale, 0 is no effect, 10 is complete control) (duck salad; [10]): 0 | Ducksalad plant response rating (duck salad; [11]): 0 | Ducksalad plant response rating (duck salad; [12]): 0 | Corn plant response rating (corn; [1]): 0 | Corn plant response rating (corn; [2]): 0 | Corn plant response rating (corn; [3]): 0 | Plant response rating, Corn (corn; [4]): 0 | Corn plant response rating (corn; [5]): 0 | Corn plant response rating (corn; [6]): 0 | Corn plant response rating (corn; [7]): 0 | Plant response rating, Corn (corn; [8]): 0 | Nutsedge plant response rating (purple nutsedge; [1]): 0 | Nutsedge plant response rating (purple nutsedge; [2]): 0 | Nutsedge plant response rating (purple nutsedge; [3]): 0 | Plant response rating, Nutsedge (purple nutsedge; [4]): 0 | Nutsedge plant response rating (purple nutsedge; [5]): 0 | Nutsedge plant response rating (purple nutsedge; [6]): 0 | Nutsedge plant response rating (purple nutsedge; [7]): 0 | Plant response rating, Nutsedge (purple nutsedge; [8]): 0 | B. signalgrass plant response rating (surinam grass; Postemergence, Rate 250 g/ha, scale 0 to 10, 0 no effect, 10 complete control): 0 | B. signalgrass plant response rating (surinam grass; [2]): 0 | B. signalgrass plant response rating (surinam grass; [3]): 2 | Plant response rating, B. signalgrass (surinam grass; [4]): 0 | B. signalgrass plant response rating (surinam grass; [5]): 0 | B. signalgrass plant response rating (surinam grass; [6]): 0 | B. signalgrass plant response rating (surinam grass; [7]): 0 | Plant response rating, B. signalgrass (surinam grass; [8]): 6 | Sugarbeets plant response rating (sugar beet; [1]): 0 | Sugarbeets plant response rating (sugar beet; [2]): 0 | Sugarbeets plant response rating (sugar beet; [3]): 0 | Plant response rating, Sugarbeets (sugar beet; [4]): 0 | Sugarbeets plant response rating (sugar beet; [5]): 0 | Sugarbeets plant response rating (sugar beet; [6]): 0 | Sugarbeets plant response rating (sugar beet; [7]): 0 | Plant response rating, Sugarbeets (sugar beet; [8]): 0 | Barnyardgrass plant response rating (bamyardgrass; [9]): 0 | Barnyardgrass plant response rating (0 to 10 scale, 0 is no effect, 10 is complete control) (bamyardgrass; [10]): 0 | Barnyardgrass plant response rating (bamyardgrass; [11]): 0 | Barnyardgrass plant response rating (bamyardgrass; [12]): 0 | Crabgrass plant response rating (crabgrass; [1]): 0 | Crabgrass plant response rating (crabgrass; [2]): 0 | Crabgrass plant response rating (crabgrass; [3]): 0 | Plant response rating, Crabgrass (crabgrass; [4]): 3 | Crabgrass plant response rating (crabgrass; [5]): 8 | Crabgrass plant response rating (crabgrass; [6]): 9 | Crabgrass plant response rating (crabgrass; [7]): 0 | Plant response rating, Crabgrass (crabgrass; [8]): 9 | Rape plant response rating (rape; [1]): 0 | Rape plant response rating (rape; [2]): 0 | Rape plant response rating (rape; [3]): 0 | Plant response rating, Rape (rape; [4]): 0 | Rape plant response rating (rape; [5]): 0 | Rape plant response rating (rape; [6]): 0 | Rape plant response rating (rape; [7]): 0 | Plant response rating, Rape (rape; [8]): 0 | Redroot pigweed plant response rating (pigweed; [1]): 0 | Redroot pigweed plant response rating (pigweed; [2]): 0 | Redroot pigweed plant response rating (pigweed; [3]): 0 | Plant response rating, Redroot pigweed (pigweed; [4]): 0 | Redroot pigweed plant response rating (pigweed; [5]): 0 | Redroot pigweed plant response rating (pigweed; [6]): 0 | Redroot pigweed plant response rating (pigweed; [7]): 0 | Plant response rating, Redroot pigweed (pigweed; [8]): 0 | Cocklebur plant response rating (cocklebur; [1]): 0 | Cocklebur plant response rating (cocklebur; [2]): 0 | Cocklebur plant response rating (cocklebur; [3]): 0 | Plant response rating, Cocklebur (cocklebur; [4]): 0 | Cocklebur plant response rating (cocklebur; [5]): 0 | Cocklebur plant response rating (cocklebur; [6]): 0 | Cocklebur plant response rating (cocklebur; [7]): 0 | Plant response rating, Cocklebur (cocklebur; [8]): 0
